The record followed here is US9040524B2, “Antifungal 5,6-dihydro-4H-pyrrolo[1,2-a][1,4]-benzodiazepines and 6H-pyrrolo[1,2-a][1,4]benzodiazepines substituted with bicycle benzene derivatives” (JANSSEN PHARMACEUTICA NV, priority 2010, dated 2015).

Holding throughout (type): cell-based
One experiment concerns Cryptococcus neoformans. In words: Antifungal activity in vitro, resazurin growth inhibition screen: Cryptococcus neoformans. The following applies: Cryptococcus neoformans B66663. As for the experimental part:
(§1) The standard susceptibility screen was performed in 96-well plates (U-bottom, Greiner Bio-One). Serial dilutions (2-fold or 4-fold) of 20 mM compound stock solutions were made in 100% DMSO, followed by an intermediate dilution step in water. These serial dilutions (10 μl) were then spotted onto test-plates that could be stored in the dark at 4° C. for a maximum period of 2 weeks. An adequate broad dose-range was included with 64 μM as the highest in-test concentration. […] The different fungal species/isolates (Table 3a) were cryopreserved and 1/1000 diluted in medium just prior to use. A standard inoculum of 200 μl containing 10^3 colony-forming unit (cfu) was then added to each well. A positive control (100% growth=fungal culture without antifungal) and a negative control (0% growth=RPMI-MOPS medium) were included on each plate.
For orientation: The colour change of resazurin is a common sign of viable cells or microbes.

The subject of a further experiment is Aspergillus fumigatus. Nature of the experiment: Antifungal activity in vitro, resazurin growth inhibition screen: Aspergillus fumigatus. The following applies: Aspergillus fumigatus B42928. As for the experimental part: as §1
Another experiment has as its system Sporothrix schenkii. Nature of the experiment: Antifungal activity in vitro, resazurin growth inhibition screen: Sporothrix schenkii. The note with it: Sporothrix schenkii B62482. As for the experimental part:
as §1

A further experiment deals with Candida parapsilosis. In words: Antifungal activity in vitro, resazurin growth inhibition screen: Candida parapsilosis. The note with it: Candida parapsilosis B66126. As to the method: as §1
For the next experiment, the system named is Trichophyton rubrum. Nature of the experiment: Antifungal activity in vitro, resazurin growth inhibition screen: Trichophyton rubrum. The following applies: Trichophyton rubrum B68183. As to the method: as §1
The subject of the next experiment is Microsporum canis. In words: Antifungal activity in vitro, resazurin growth inhibition screen: Microsporum canis. The following applies: Microsporum canis B68128. As to the method:
as §1

Experiment [1] relates to Trichophyton mentagrophytes. Nature of the experiment: Antifungal activity in vitro, resazurin growth inhibition screen: Trichophyton mentagrophytes. The note with it: Trichophyton mentagrophytes B70554. As for the experimental part:
as §1

`Br.c1ccc2c(c1)CNC(c1ccc3c(c1)OCO3)c1cccn1-2` (stereo not drawn) [Compound 2, 4-(1,3-benzodioxol-5-yl)-5,6-dihydro-4H-pyrrolo[1,2-a][1,4]benzodiazepine .HBr]: the “Inf. F pIC50” value in the experiment on Cryptococcus neoformans is under 4.19. Besides, the “Inf. E pIC50” value with Aspergillus fumigatus is given as under 4.19. Further, the “Inf. A pIC50” value with Sporothrix schenkii was under 4.19. The “Inf. D pIC50” value in the experiment on Candida parapsilosis is under 4.19. Also, in the experiment on Trichophyton rubrum, the “Inf. C pIC50” value was determined as 4.96. Further, in the experiment on Microsporum canis, the “Inf. B pIC50” value was found to be 4.42.
Turning to `Clc1cccc2c1CNC(c1ccc3c(c1)OCO3)c1cccn1-2` (stereo not drawn) [Compound 3, 4-(1,3-benzodioxol-5-yl)-7-chloro-5,6-dihydro-4H-pyrrolo[1,2-a][1,4]benzo-diazepine], in experiment [1], the “Inf. G pIC50” value came out at 4.71. Moreover, in the experiment with Cryptococcus neoformans, the “Inf. F pIC50” value amounted to 4.30. Besides, the “Inf. E pIC50” value in the experiment with Aspergillus fumigatus was under 4.19. The “Inf. A pIC50” value in the experiment on Sporothrix schenkii was under 4.19. In addition, in the experiment with Candida parapsilosis, the “Inf. D pIC50” value is reported as under 4.19. Moreover, in the experiment with Trichophyton rubrum, the “Inf. C pIC50” value amounted to 4.47. Also, the “Inf. B pIC50” value in the experiment with Microsporum canis is 4.91.
In the case of `Br.Clc1cccc2c1CNC(c1ccc3c(c1)OCO3)c1cccn1-2` (stereo not drawn) [Compound 4, 4-(1,3-benzodioxol-5-yl)-7-chloro-5,6-dihydro-4H-pyrrolo[1,2-a][1,4]benzo-diazepine .HBr], the “Inf. F pIC50” value in the experiment on Cryptococcus neoformans was determined as 4.38. Further, the “Inf. E pIC50” value in the experiment on Aspergillus fumigatus is under 4.19. The “Inf. A pIC50” value with Sporothrix schenkii is listed as under 4.19. In the experiment on Candida parapsilosis, the “Inf. D pIC50” value is under 4.19. For the same compound, the “Inf. C pIC50” value in the experiment on Trichophyton rubrum stood at 5.70. For the same compound, the “Inf. B pIC50” value in the experiment on Microsporum canis is recorded as 5.09.
Turning to `Br.Clc1ccc2c(c1)CNC(c1ccc3c(c1)OCO3)c1cccn1-2` (stereo not drawn) [Compound 5, 4-(1,3-benzodioxol-5-yl)-8-chloro-5,6-dihydro-4H-pyrrolo[1,2-a][1,4]benzo-diazepine .HBr], in the experiment on Cryptococcus neoformans, the “Inf. F pIC50” value amounted to 4.42. In addition, in the experiment with Aspergillus fumigatus, the “Inf. E pIC50” value is under 4.19. For the same compound, the “Inf. A pIC50” value with Sporothrix schenkii is listed as under 4.19. In addition, in the experiment with Candida parapsilosis, the “Inf. D pIC50” value is recorded as under 4.19. The “Inf. C pIC50” value with Trichophyton rubrum was determined as 5.05. Moreover, the “Inf. B pIC50” value with Microsporum canis is listed as 5.11.
On to `Br.Clc1ccc2c(c1)-n1cccc1C(c1ccc3c(c1)OCO3)NC2` (stereo not drawn) [Compound 6, 4-(1,3-benzodioxol-5-yl)-9-chloro-5,6-dihydro-4H-pyrrolo[1,2-a][1,4]benzo-diazepine .HBr], for which the “Inf. G pIC50” value in experiment [1] worked out at 4.50. Moreover, the “Inf. F pIC50” value in the experiment on Cryptococcus neoformans is listed as 5.10. Further, in the experiment with Aspergillus fumigatus, the “Inf. E pIC50” value is under 4.19. Besides, the “Inf. A pIC50” value in the experiment with Sporothrix schenkii is 4.21. For the same compound, the “Inf. D pIC50” value in the experiment on Candida parapsilosis was under 4.19. Further, the “Inf. C pIC50” value in the experiment on Trichophyton rubrum was 5.15. Moreover, in the experiment with Microsporum canis, the “Inf. B pIC50” value is 5.00.
For `Br.Clc1cccc2c1-n1cccc1C(c1ccc3c(c1)OCO3)NC2` (stereo not drawn) [Compound 7, 4-(1,3-benzodioxol-5-yl)-10-chloro-5,6-dihydro-4H-pyrrolo[1,2-a][1,4]benzo-diazepine .HBr], the “Inf. G pIC50” value in experiment [1] came out at 4.47. Further, the “Inf. F pIC50” value in the experiment with Cryptococcus neoformans worked out at 4.64. In the experiment with Aspergillus fumigatus, the “Inf. E pIC50” value was under 4.19. For the same compound, the “Inf. A pIC50” value with Sporothrix schenkii is under 4.19. Besides, in the experiment on Candida parapsilosis, the “Inf. D pIC50” value is under 4.19. Also, in the experiment on Trichophyton rubrum, the “Inf. C pIC50” value was found to be 5.40. In the experiment with Microsporum canis, the “Inf. B pIC50” value turned out to be 5.30.
With `Br.CCOc1cc2c(cc1C1NCc3c(Cl)cccc3-n3cccc31)CCC2` (stereo not drawn) [Compound 14, 7-chloro-4-(6-ethoxy-2,3-dihydro-1H-inden-5-yl)-5,6-dihydro-4H-pyrrolo[1,2-a]-[1,4]benzodiazepine .HBr], the “Inf. F pIC50” value with Cryptococcus neoformans worked out at 4.82. In the experiment with Aspergillus fumigatus, the “Inf. E pIC50” value is given as under 4.19. For the same compound, in the experiment on Sporothrix schenkii, the “Inf. A pIC50” value is under 4.19. Moreover, the “Inf. D pIC50” value in the experiment with Candida parapsilosis is reported as under 4.19. The “Inf. C pIC50” value with Trichophyton rubrum is 5.52. The “Inf. B pIC50” value in the experiment on Microsporum canis is listed as 5.10.
With `Br.COc1cc2c(cc1C1NCc3c(Cl)cccc3-n3cccc31)OC(C)C2` (stereo not drawn) [Compound 49, 7-chloro-4-(2,3-dihydro-5-methoxy-2-methyl-6-benzofuranyl)-5,6-dihydro-4H-pyrrolo[1,2-a][1,4]benzodiazepine .HBr], the “Inf. F pIC50” value in the experiment on Cryptococcus neoformans is reported as 4.34. The “Inf. E pIC50” value with Aspergillus fumigatus is under 4.19. Besides, in the experiment on Sporothrix schenkii, the “Inf. A pIC50” value was under 4.19. The “Inf. D pIC50” value in the experiment with Candida parapsilosis is reported as under 4.19. In the experiment with Trichophyton rubrum, the “Inf. C pIC50” value amounted to 5.10. For the same compound, in the experiment on Microsporum canis, the “Inf. B pIC50” value is reported as 5.05.
